Measured values taken from ChEMBL document CHEMBL4359915, “Design, synthesis and biological evaluation of novel diazaspiro[4.5]decan-1-one derivatives as potential chitin synthase inhibitors and antifungal agents” (Eur J Med Chem, 2019).
pIC50: −log10 of the molar value. ≈ marks a conversion by molar mass, not a printed value.

Tests used:
Candida tropicalis = test: Inhibition of Candida tropicalis ATCC 750 chitin synthase at 300 ug/ml using UDP-GlcNAc as substrate relative to control
Candida albicans [1] = test: Antifungal activity against Candida albicans ATCC 76615 assessed as growth inhibition measured after 24 hrs by two-fold broth dilution method; format: functional; details: ATCC 76615, 24 h
Aspergillus fumigatus [2] = test: Antifungal activity against Aspergillus fumigatus GIMCC 3.19 assessed as growth inhibition measured after 24 hrs by two-fold broth dilution method; format: functional; details: GIMCC 3.19, 24 h
Candida albicans [3] = test: Antifungal activity against Candida albicans ATCC 90023 assessed as growth inhibition measured after 24 hrs by two-fold broth dilution method; format: functional; details: ATCC 90023, 24 h
Cryptococcus neoformans [4] = test: Antifungal activity against Cryptococcus neoformans ATCC 32719 assessed as growth inhibition measured after 24 hrs by two-fold broth dilution method; format: functional; details: ATCC 32719, 24 h
Aspergillus flavus [5] = test: Antifungal activity against Aspergillus flavus ATCC 16870 assessed as growth inhibition measured after 24 hrs by two-fold broth dilution method; format: functional; details: ATCC 16870, 24 h
Staphylococcus aureus [6] = test: Antibacterial activity against methicillin-resistant Staphylococcus aureus N315 assessed as growth inhibition measured after 24 hrs by two-fold broth dilution method; format: functional; details: N315, 24 h
Staphylococcus aureus [7] = test: Antibacterial activity against Staphylococcus aureus ATCC 25923 assessed as growth inhibition measured after 24 hrs by two-fold broth dilution method; format: functional; details: ATCC 25923, 24 h
Bacillus spizizenii = test: Antibacterial activity against Bacillus subtilis ATCC 6633 assessed as growth inhibition measured after 24 hrs by two-fold broth dilution method; format: functional; details: ATCC 6633, 24 h
Escherichia coli = test: Antibacterial activity against Escherichia coli JM 109 assessed as growth inhibition measured after 24 hrs by two-fold broth dilution method; format: functional; details: JM 109, 24 h
Pseudomonas aeruginosa = test: Antibacterial activity against Pseudomonas aeruginosa ATCC 9027 assessed as growth inhibition measured after 24 hrs by two-fold broth dilution method; format: functional; details: ATCC 9027, 24 h
[8] = Inhibition of Candida tropicalis ATCC 750 chitin synthase using UDP-GlcNAc as substrate
Candida albicans [9] = test: Antifungal activity against Candida albicans ATCC 76615 assessed as fractional inhibitory concentration index after 24 hrs in presence of fluconazole by two-dimensional broth microdilution checkboard assay; format: functional
Aspergillus fumigatus [10] = test: Antifungal activity against Aspergillus fumigatus GIMCC 3.19 assessed as fractional inhibitory concentration index after 24 hrs in presence of fluconazole by two-dimensional broth microdilution checkboard assay; format: functional
Cryptococcus neoformans [11] = test: Antifungal activity against Cryptococcus neoformans ATCC 32719 assessed as fractional inhibitory concentration index after 24 hrs in presence of fluconazole by two-dimensional broth microdilution checkboard assay; format: functional
Aspergillus flavus [12] = test: Antifungal activity against Aspergillus flavus ATCC 16870 assessed as fractional inhibitory concentration index after 24 hrs in presence of fluconazole by two-dimensional broth microdilution checkboard assay; format: functional
Candida albicans [13] = test: Antifungal activity against Candida albicans ATCC 76615 after 24 hrs in presence of fluconazole by two-dimensional broth microdilution checkboard assay; format: functional; details: ATCC 76615, 24 h
Aspergillus fumigatus [14] = test: Antifungal activity against Aspergillus fumigatus GIMCC 3.19 after 24 hrs in presence of fluconazole by two-dimensional broth microdilution checkboard assay; format: functional; details: GIMCC 3.19, 24 h
Cryptococcus neoformans [15] = test: Antifungal activity against Cryptococcus neoformans ATCC 32719 after 24 hrs in presence of fluconazole by two-dimensional broth microdilution checkboard assay; format: functional; details: ATCC 32719, 24 h
Aspergillus flavus [16] = test: Antifungal activity against Aspergillus flavus ATCC 16870 after 24 hrs in presence of fluconazole by two-dimensional broth microdilution checkboard assay; format: functional; details: ATCC 16870, 24 h
Proteus vulgaris = test: Antibacterial activity against Bacillus proteus ATCC 8427 assessed as growth inhibition measured after 24 hrs by two-fold broth dilution method; format: functional; details: ATCC 8427, 24 h
Candida albicans [17] = test: Antifungal activity against Candida albicans ATCC 76615 assessed as fluconazole MIC after 24 hrs in presence of fluconazole by two-dimensional broth microdilution checkboard assay; format: functional; details: ATCC 76615, 24 h
Aspergillus fumigatus [18] = test: Antifungal activity against Aspergillus fumigatus GIMCC 3.19 assessed as fluconazole MIC after 24 hrs in presence of fluconazole by two-dimensional broth microdilution checkboard assay; format: functional; details: GIMCC 3.19, 24 h
Cryptococcus neoformans [19] = test: Antifungal activity against Cryptococcus neoformans ATCC 32719 assessed as fluconazole MIC after 24 hrs in presence of fluconazole by two-dimensional broth microdilution checkboard assay; format: functional; details: ATCC 32719, 24 h
Aspergillus flavus [20] = test: Antifungal activity against Aspergillus flavus ATCC 16870 assessed as fluconazole MIC after 24 hrs in presence of fluconazole by two-dimensional broth microdilution checkboard assay; format: functional; details: ATCC 16870, 24 h

| SMILES | inhibition (Candida tropicalis) [%] | MIC (Candida albicans [1]) [µM] | MIC (Aspergillus fumigatus [2]) [µM] | MIC (Candida albicans [3]) [µM] | MIC (Cryptococcus neoformans [4]) [µM] | MIC (Aspergillus flavus [5]) [µM] | MIC (Staphylococcus aureus [6]) [µM] | MIC (Staphylococcus aureus [7]) [µM] | MIC (Bacillus spizizenii) [µM] | MIC (Escherichia coli) [µM] | MIC (Pseudomonas aeruginosa) [µM] | pIC50 [8] | fractional inhibitory concentration index (FICI) (Candida albicans [9]) | fractional inhibitory concentration index (FICI) (Aspergillus fumigatus [10]) | fractional inhibitory concentration index (FICI) (Cryptococcus neoformans [11]) | fractional inhibitory concentration index (FICI) (Aspergillus flavus [12]) | MIC (Candida albicans [13]) [µM] | MIC (Aspergillus fumigatus [14]) [µM] | MIC (Cryptococcus neoformans [15]) [µM] | MIC (Proteus vulgaris) [µM] | other results |
| --- | --- | --- | --- | --- | --- | --- | --- | --- | --- | --- | --- | --- | --- | --- | --- | --- | --- | --- | --- | --- | --- |
| O=C(Nc1ccc(F)c(Cl)c1)[C@H](O)[C@@H](O)C(=O)N1CCC2(CCNC2=O)CC1 | 70.6 | 309 (≈ 128 µg/mL) | 155 (≈ 64.1 µg/mL) | 150 (≈ 62.1 µg/mL) | 309 (≈ 128 µg/mL) | 155 (≈ 64.1 µg/mL) | 150 (≈ 62.1 µg/mL) | 310 (≈ 128 µg/mL) | 620 (≈ 257 µg/mL) | 310 (≈ 128 µg/mL) | 620 (≈ 257 µg/mL) | 3.66 | 1.3 | 1.5 | 2.3 | 1 | 77 | 155 | 77 | 310 (≈ 128 µg/mL) | MIC (Aspergillus flavus [16]): 77 µM; MIC (Candida albicans [17]): 52 µM; MIC (Aspergillus fumigatus [18]): 52 µM; MIC (Cryptococcus neoformans [19]): 104 µM; MIC (Aspergillus flavus [20]): 104 µM |
| O=C(Nc1cc(C(F)(F)F)cc(C(F)(F)F)c1)[C@H](O)[C@@H](O)C(=O)N1CCC2(CCNC2=O)CC1 | 2.3 | 32 (≈ 15.9 µg/mL) | 515 (≈ 256 µg/mL) | 260 (≈ 129 µg/mL) | 64 (≈ 31.8 µg/mL) | 515 (≈ 256 µg/mL) | 260 (≈ 129 µg/mL) | 1030 (≈ 512 µg/mL) | 510 (≈ 254 µg/mL) | 60 (≈ 29.8 µg/mL) | 510 (≈ 254 µg/mL) |  | 1 | 0.8 | 3 | 0.5 | 16 | 129 | 129 | 1030 (≈ 512 µg/mL) | MIC (Aspergillus flavus [16]): 129 µM; MIC (Candida albicans [17]): 26 µM; MIC (Aspergillus fumigatus [18]): 52 µM; MIC (Cryptococcus neoformans [19]): 52 µM; MIC (Aspergillus flavus [20]): 52 µM |
| COc1ccc(NC(=O)[C@H](O)[C@@H](O)C(=O)N2CCC3(CCNC3=O)CC2)cc1 | 78.3 | 164 (≈ 64.2 µg/mL) | 82 (≈ 32.1 µg/mL) | 330 (≈ 129 µg/mL) | 327 (≈ 128 µg/mL) | 164 (≈ 64.2 µg/mL) | 650 (≈ 254 µg/mL) | 330 (≈ 129 µg/mL) | 1310 (≈ 513 µg/mL) | 330 (≈ 129 µg/mL) | 1310 (≈ 513 µg/mL) | 3.92 | 2 | 1 | 1.5 | 0.8 | 164 | 41 | 327 | 330 (≈ 129 µg/mL) | MIC (Aspergillus flavus [16]): 82 µM; MIC (Candida albicans [17]): 52 µM; MIC (Aspergillus fumigatus [18]): 52 µM; MIC (Cryptococcus neoformans [19]): 26 µM; MIC (Aspergillus flavus [20]): 52 µM |
| O=C(Nc1ccc(Cl)cc1)[C@H](O)[C@@H](O)C(=O)N1CCC2(CCNC2=O)CC1 | 66.5 | 162 (≈ 64.1 µg/mL) | 323 (≈ 128 µg/mL) | 320 (≈ 127 µg/mL) | 162 (≈ 64.1 µg/mL) | 323 (≈ 128 µg/mL) | 650 (≈ 257 µg/mL) | 320 (≈ 127 µg/mL) | 1290 (≈ 511 µg/mL) | 320 (≈ 127 µg/mL) | 1290 (≈ 511 µg/mL) | 3.57 | 0.3 | 0.8 | 2 | 1 | 10 | 81 | 162 | 650 (≈ 257 µg/mL) | MIC (Aspergillus flavus [16]): 162 µM; MIC (Candida albicans [17]): 13 µM; MIC (Aspergillus fumigatus [18]): 52 µM; MIC (Cryptococcus neoformans [19]): 52 µM; MIC (Aspergillus flavus [20]): 104 µM |
| O=C(Nc1cccc(Br)c1)[C@H](O)[C@@H](O)C(=O)N1CCC2(CCNC2=O)CC1 | 79.4 | 290 (≈ 128 µg/mL) | 1160 (≈ 511 µg/mL) | 580 (≈ 255 µg/mL) | 290 (≈ 128 µg/mL) | 280 (≈ 123 µg/mL) | 290 (≈ 128 µg/mL) | 290 (≈ 128 µg/mL) | 1160 (≈ 511 µg/mL) | 580 (≈ 255 µg/mL) | 580 (≈ 255 µg/mL) | 3.82 |  |  |  |  |  |  |  | 290 (≈ 128 µg/mL) |  |
